Measured values: ChEMBL document CHEMBL1201862, “PubChem BioAssay data set” (2004)
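Briefly, cells in 96-well plates were exposed to five compound concentrations for 48 h, and endpoints were estimated by linear interpolation. GI50 = concentration required for 50% inhibition of growth.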 Calls of active or inactive are those of the source. Rule as the data show it: active = GI50 up to about 1.1 µM and inactive = higher.

How the values were obtained:
Experiment in all cases: NCI anticancer screen, dose series, 48 h
CCRF-CEM = system: CCRF-CEM
HCT-15 = system: HCT-15
OVCAR-4 = system: OVCAR-4
LOX IMVI = system: LOX IMVI
HT-29 = system: HT-29
HCT-116 = system: HCT-116
MCF7 = system: MCF7
M14 = system: M14
RXF 393 = system: RXF 393
MDA-MB-435 = system: MDA-MB-435
HOP-62 = system: HOP-62
SK-MEL-2 = system: SK-MEL-2
SF-268 = system: SF-268
CAKI-1 = system: CAKI-1
SW-620 = system: SW-620
BT-549 = system: BT-549
MOLT-4 = system: MOLT-4
UACC-62 = system: UACC-62
RPMI-8226 = system: RPMI-8226
COLO 205 = system: COLO 205
UACC-257 = system: UACC-257
UO-31 = system: UO-31
SR = system: SR
IGROV-1 = system: IGROV-1
SNB-75 = system: SNB-75
SK-OV-3 = system: SK-OV-3
T47D = system: T47D
ACHN = system: ACHN
SNB-19 = system: SNB-19
NCI/ADR-RES = system: NCI/ADR-RES
Malme-3M = system: Malme-3M
SK-MEL-5 = system: SK-MEL-5
SK-MEL-28 = system: SK-MEL-28
786-0 = system: 786-0
Hs-578T = system: Hs-578T
NCI-H522 = system: NCI-H522
A498 = system: A498
OVCAR-3 = system: OVCAR-3
SN12C = system: SN12C
KM12 = system: KM12
MDA-N = system: MDA-N
DU-145 = system: DU-145
OVCAR-5 = system: OVCAR-5
TK-10 = system: TK-10
SF-295 = system: SF-295
HCC 2998 = system: HCC 2998
K562 = system: K562
NCI-H460 = system: NCI-H460
OVCAR-8 = system: OVCAR-8
NCI-H226 = system: NCI-H226
PC-3 = system: PC-3
MDA-MB-231 = system: MDA-MB-231
U-251 = system: U-251
A549 = system: A549
EKVX = system: EKVX
HOP-92 = system: HOP-92
NCI-H23 = system: NCI-H23
SF-539 = system: SF-539
HL-60 = system: HL-60

Measured: GI50

O=C1c2ccccc2-n2nnnc2C2CSCN12 (configuration not stated)
inactive: CCRF-CEM > 100 µM | OVCAR-4 > 100 µM | LOX IMVI > 100 µM | HT-29 > 100 µM | HCT-116 > 100 µM | MCF7 > 100 µM | M14 > 100 µM | RXF 393 > 100 µM | MDA-MB-435 > 100 µM | HOP-62 > 100 µM | SK-MEL-2 > 100 µM | SF-268 > 100 µM | CAKI-1 > 100 µM | SW-620 > 100 µM | BT-549 > 100 µM | MOLT-4 > 100 µM | UACC-62 > 100 µM | RPMI-8226 > 100 µM | COLO 205 > 100 µM | UACC-257 > 100 µM | UO-31 > 100 µM | SR > 100 µM | IGROV-1 > 100 µM | SNB-75 > 100 µM | SK-OV-3 > 100 µM | T47D > 100 µM | ACHN > 100 µM | SNB-19 > 100 µM | NCI/ADR-RES > 100 µM | Malme-3M > 100 µM | SK-MEL-5 > 100 µM | SK-MEL-28 > 100 µM | 786-0 > 100 µM | Hs-578T > 100 µM | NCI-H522 > 100 µM | A498 > 100 µM | OVCAR-3 > 100 µM | SN12C > 100 µM | KM12 > 100 µM | MDA-N > 100 µM | DU-145 > 100 µM | OVCAR-5 > 100 µM | TK-10 > 100 µM | SF-295 > 100 µM | HCC 2998 > 100 µM | K562 56.2 µM | NCI-H460 > 100 µM | OVCAR-8 > 100 µM | NCI-H226 > 100 µM | PC-3 > 100 µM | MDA-MB-231 > 100 µM | U-251 > 100 µM | A549 > 100 µM | EKVX > 100 µM
> 100 µM: HCT-15

Nc1nc(Cl)cc(NCC2(CCO)CCC2)n1
> 100 µM: HCT-15
inactive: CCRF-CEM > 100 µM | OVCAR-4 > 100 µM | LOX IMVI > 100 µM | HT-29 > 100 µM | HCT-116 > 100 µM | MCF7 > 100 µM | RXF 393 80.5 µM | MDA-MB-435 > 100 µM | HOP-92 > 100 µM | HOP-62 > 100 µM | SK-MEL-2 > 100 µM | CAKI-1 > 100 µM | NCI-H23 > 100 µM | SW-620 > 100 µM | BT-549 32.7 µM | MOLT-4 > 100 µM | UACC-62 > 10 µM | RPMI-8226 > 100 µM | UACC-257 > 100 µM | SF-539 > 100 µM | UO-31 > 100 µM | SR > 100 µM | IGROV-1 > 100 µM | SNB-75 > 10 µM | SK-OV-3 > 100 µM | T47D 22.2 µM | ACHN > 100 µM | SNB-19 > 100 µM | NCI/ADR-RES > 100 µM | Malme-3M > 100 µM | SK-MEL-5 > 100 µM | SK-MEL-28 > 100 µM | 786-0 > 100 µM | Hs-578T > 100 µM | NCI-H522 > 100 µM | OVCAR-3 > 100 µM | SN12C > 100 µM | KM12 > 100 µM | MDA-N > 100 µM | DU-145 > 100 µM | OVCAR-5 > 100 µM | TK-10 > 100 µM | SF-295 > 10 µM | HCC 2998 > 100 µM | HL-60 > 100 µM | K562 > 100 µM | NCI-H460 > 100 µM | OVCAR-8 > 100 µM | NCI-H226 > 100 µM | PC-3 > 100 µM | MDA-MB-231 > 100 µM | U-251 > 100 µM | A549 > 100 µM | EKVX 59.4 µM

O=C1CC2(CCC(O)(c3cccc4ccccc34)C(C(=O)c3cccc4ccccc34)C2)C(=O)c2ccccc2N1 (configuration not stated)
inactive: CCRF-CEM > 10 µM | LOX IMVI 32.8 µM | HT-29 7.93 µM | HCT-116 23.6 µM | MCF7 36 µM | M14 29.8 µM | RXF 393 4.1 µM | MDA-MB-435 72.6 µM | HOP-92 7.43 µM | HOP-62 10.5 µM | SK-MEL-2 > 100 µM | SF-268 15.7 µM | CAKI-1 25.9 µM | NCI-H23 62.2 µM | SW-620 24.2 µM | BT-549 46.7 µM | MOLT-4 25.9 µM | UACC-62 81.5 µM | COLO 205 29.6 µM | UACC-257 > 100 µM | SF-539 48 µM | UO-31 23.7 µM | SR 14.2 µM | IGROV-1 > 100 µM | SNB-75 10.7 µM | SK-OV-3 46.3 µM | T47D 34.5 µM | SNB-19 5.09 µM | NCI/ADR-RES > 100 µM | Malme-3M > 100 µM | SK-MEL-5 24.8 µM | SK-MEL-28 11.1 µM | Hs-578T 6.78 µM | A498 > 100 µM | OVCAR-3 39.9 µM | SN12C 72.8 µM | MDA-N 18.4 µM | DU-145 25.8 µM | OVCAR-5 71.8 µM | TK-10 29.1 µM | SF-295 12.6 µM | HCC 2998 26.1 µM | HL-60 > 10 µM | K562 15.6 µM | NCI-H460 7.78 µM | OVCAR-8 > 100 µM | NCI-H226 > 100 µM | PC-3 91 µM | MDA-MB-231 17.7 µM | U-251 11.1 µM | A549 > 100 µM | EKVX 28.9 µM
26.4 µM: HCT-15

CN(C)c1nc(-c2ccccc2)c(C(=O)c2c[nH]c3ccccc23)s1
inactive: CCRF-CEM 5.92 µM | OVCAR-4 17.4 µM | LOX IMVI 6.49 µM | HT-29 3.51 µM | HCT-116 3.88 µM | MCF7 4.48 µM | M14 4.59 µM | RXF 393 14.2 µM | MDA-MB-435 2.09 µM | HOP-62 15.1 µM | SF-268 9.2 µM | CAKI-1 9.4 µM | NCI-H23 30 µM | SW-620 5.24 µM | BT-549 > 100 µM | MOLT-4 6.62 µM | UACC-62 6.05 µM | RPMI-8226 3.16 µM | COLO 205 4.78 µM | UACC-257 6.71 µM | SF-539 10.7 µM | UO-31 11.2 µM | SR 1.54 µM | IGROV-1 3.89 µM | SNB-75 2.67 µM | SK-OV-3 7.6 µM | T47D > 43.7 µM | ACHN 30.5 µM | SNB-19 14.8 µM | NCI/ADR-RES 3.06 µM | Malme-3M 11.2 µM | SK-MEL-5 8.57 µM | SK-MEL-28 > 35.2 µM | 786-0 8.61 µM | Hs-578T 4.75 µM | NCI-H522 2.76 µM | A498 9.98 µM | OVCAR-3 5.04 µM | SN12C 18.2 µM | KM12 4.2 µM | MDA-N 1.93 µM | DU-145 34.2 µM | OVCAR-5 > 24.3 µM | TK-10 7.53 µM | SF-295 3.92 µM | HCC 2998 6.55 µM | HL-60 3.4 µM | K562 4.07 µM | NCI-H460 3.55 µM | OVCAR-8 9.62 µM | NCI-H226 > 25.7 µM | PC-3 > 31.3 µM | MDA-MB-231 14.5 µM | U-251 5.66 µM | A549 6.62 µM | EKVX 26 µM
3.9 µM: HCT-15

CCOC(=O)C1=[N+]([O-])OC2=C(O)CCCC21 (configuration not stated)
inactive: CCRF-CEM > 100 µM | OVCAR-4 > 100 µM | LOX IMVI > 100 µM | HT-29 > 100 µM | HCT-116 > 100 µM | MCF7 > 100 µM | M14 > 100 µM | RXF 393 > 100 µM | MDA-MB-435 > 100 µM | HOP-92 > 100 µM | HOP-62 > 100 µM | SK-MEL-2 > 100 µM | SF-268 > 100 µM | CAKI-1 > 100 µM | NCI-H23 > 100 µM | SW-620 > 100 µM | BT-549 > 100 µM | MOLT-4 > 100 µM | UACC-62 > 100 µM | RPMI-8226 > 100 µM | COLO 205 > 100 µM | UACC-257 > 100 µM | UO-31 > 100 µM | SR > 100 µM | IGROV-1 > 100 µM | SNB-75 > 100 µM | SK-OV-3 > 100 µM | T47D > 100 µM | ACHN > 100 µM | SNB-19 > 100 µM | NCI/ADR-RES > 100 µM | Malme-3M > 100 µM | SK-MEL-5 > 100 µM | SK-MEL-28 > 100 µM | 786-0 > 100 µM | Hs-578T > 100 µM | NCI-H522 > 100 µM | A498 > 100 µM | OVCAR-3 > 100 µM | SN12C > 100 µM | KM12 > 100 µM | MDA-N > 100 µM | DU-145 > 100 µM | OVCAR-5 > 100 µM | TK-10 > 100 µM | SF-295 > 100 µM | HCC 2998 > 100 µM | K562 > 100 µM | NCI-H460 > 100 µM | OVCAR-8 > 100 µM | NCI-H226 > 100 µM | PC-3 > 100 µM | MDA-MB-231 > 100 µM | U-251 > 100 µM | A549 > 100 µM | EKVX > 100 µM
> 100 µM: HCT-15
